Assay results as given in patent publication US12268781B2, “Sustained-release pharmaceutical compositions comprising a therapeutic agent for treating dementia and uses thereof” (priority 2018, dated 2025).
Structures can show the parent of a compound that is named as a salt.

Key:
[1] = In vitro release, human plasma system (dialysis bag in PBS); format: in vitro ADME; conditions: 37 °C, within 4 hours
Protocol: (§1) Two in vitro release systems were used in this study, the first system was the plasma free environment and the second system was the human plasma environment. To set up the first in vitro release system, 1.0 mL of liposomal rivastigmine formulation prepared according to Example 1 and 1.0 mL of free rivastigmine tartrate were placed in separate dialysis bags (Spectra/Pro*6 dialysis membrane, MWCO 50 kDa, Spectrum Labs) and both ends of the dialysis bags were sealed. To set up the second in vitro release system, 1.0 mL of liposomal rivastigmine formulation prepared according to Example 1 and 1.0 mL of free rivastigmine tartrate were placed in separate dialysis bags, each containing 1 mL of human plasma (Valley Biomedical, Inc.) and both ends of the dialysis bags were sealed. Each dialysis bag was immersed in 25 mL PBS at pH 7.4 in a 50-mL centrifuge tube and incubated in a water bath at 37±1° C. for 24 hours. At designated time points after incubation (1, 2, 4, 6 and 24 hours), 0.5 mL aliquot from the 25-mL PBS was sampled and 0.5 mL of fresh PBS was added to replace the sampling aliquot. Drug concentrations of the sampling aliquots at each time point were analyzed using high performance liquid chromatography (HPLC) to create the in vitro release profile.

[2] = PK study of liposomal rivastigmine in rats, subcutaneous injection; format: in vivo, Sprague-Dawley rats
Protocol: An in vivo PK evaluation of the liposomal rivastigmine formulation was performed using 7-8 weeks old female Sprague-Dawley rats. The rats were housed in a holding room which operated on a 12-hr light/12-hr dark circadian cycle with free access to water and food.
The rats were divided into two groups (n=3 in each group), one group received subcutaneous injection of 10 mg/kg of free rivastigmine tartrate, prepared by dissolving rivastigmine tartrate in ultrapure water with a final concentration of 2 mg/mL. The other group received subcutaneous injection of 10 mg/kg of liposomal rivastigmine tartrate, prepared according to Example 1. Blood samples were collected at 15 min, 1, 2, 4, 6, 8, 24, 48, and 72 hours post-injection. Plasma samples were obtained by centrifugation, kept frozen at −80° C. and analyzed using a noncompartmental analysis model in PKSolver (Comput Methods Programs Biomed. 2010; 99(3):306-314).

[3] = In vitro release, plasma free system (dialysis bag in PBS); format: physicochemical; conditions: PBS pH 7.4, 37 °C, within 2 hours
Protocol: as §1

[4] = female, Sprague-Dawley, rat, plasma, sc, single subcutaneous injection 10 mg/kg

With CCN(C)C(=O)Oc1cccc([C@H](C)N(C)C)c1 [Free Rivastigmine, rivastigmine tartrate] as the compound, how does the rivastigmine released [1] read?
The rivastigmine released was 90%.

What about the rivastigmine in plasma ([2]; 8 hours post injection, FIG. 2) of the same compound?
The rivastigmine in plasma was “undetectable”.

And the “rivastigmine released as indicated by AUC0-t” value ([2]; 72 hours post-injection)?
The value was 100%.

And the AUC(0-inf) [2, 4]?
The AUC(0-inf) was 899 ng·h/mL.

What about the AUC(0-t) [2, 4] of the same compound?
The AUC(0-t) was 896 ng·h/mL.

And the Cmax [2, 4]?
Its Cmax is 427 ng/mL.

And the half-life ([2]; female, Sprague-Dawley, rat, plasma, sc, single subcutaneous injection 10 mg/kg, read-out: t½ (converted))?
The half-life was 55.8 min.

And the “rivastigmine released through the dialysis bag” value [3]?
Its value is “one hundred”.
